Counter-ions that a name gives are not always drawn. Like-named read-outs stand apart in the source and are kept apart here.
Experiments:
Assay type in all cases: biochemical
[1] = target: T1, Trypsin (Bos taurus, UniProt P00760); test: Inhibitory effect on ester-hydrolyzing activity of trypsin (TAMe substrate)
T1 sequence (P00760 24-246): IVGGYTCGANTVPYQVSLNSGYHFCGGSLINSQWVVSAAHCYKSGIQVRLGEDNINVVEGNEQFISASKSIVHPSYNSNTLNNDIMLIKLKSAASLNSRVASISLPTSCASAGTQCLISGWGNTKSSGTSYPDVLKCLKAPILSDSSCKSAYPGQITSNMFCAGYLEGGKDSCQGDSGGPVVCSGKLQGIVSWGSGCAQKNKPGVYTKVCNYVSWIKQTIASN
Description: (§1) The enzyme-inhibitory activities in vitro of the compounds of this invention were measured by the following procedure according to the method of M. Muramatsu et al. [[…]. […] After the incubation, 1.5 ml of 2 M alkaline hydroxylamine was added and thoroughly mixed, and allowed to stand at room temperature for 15 minutes.

[2] = target: Human Plasmin (Homo sapiens, UniProt P00747); test: Inhibitory effect on ester-hydrolyzing activity of human plasmin (TAMe substrate); conditions: for inhibition at 1000 µM: at 10^-3 M, read-out: Plasmin percent inhibition; for inhibition at 1000 µM / IC50: in vitro, TAMe; for inhibitory activity on plasmin: text of Examples; for IC50: Table 4 bracketed value, read-out: Plasmin ID50
Chain of Human Plasmin (P00747 581-810 limits assumed): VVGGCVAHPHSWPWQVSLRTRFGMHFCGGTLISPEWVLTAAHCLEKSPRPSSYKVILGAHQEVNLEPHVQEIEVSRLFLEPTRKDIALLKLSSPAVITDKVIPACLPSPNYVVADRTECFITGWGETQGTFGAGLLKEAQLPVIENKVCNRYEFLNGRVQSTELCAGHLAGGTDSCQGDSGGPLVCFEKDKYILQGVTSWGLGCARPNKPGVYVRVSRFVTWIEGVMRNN
Chain of Human Plasmin (P00747 97-580 partner limits assumed): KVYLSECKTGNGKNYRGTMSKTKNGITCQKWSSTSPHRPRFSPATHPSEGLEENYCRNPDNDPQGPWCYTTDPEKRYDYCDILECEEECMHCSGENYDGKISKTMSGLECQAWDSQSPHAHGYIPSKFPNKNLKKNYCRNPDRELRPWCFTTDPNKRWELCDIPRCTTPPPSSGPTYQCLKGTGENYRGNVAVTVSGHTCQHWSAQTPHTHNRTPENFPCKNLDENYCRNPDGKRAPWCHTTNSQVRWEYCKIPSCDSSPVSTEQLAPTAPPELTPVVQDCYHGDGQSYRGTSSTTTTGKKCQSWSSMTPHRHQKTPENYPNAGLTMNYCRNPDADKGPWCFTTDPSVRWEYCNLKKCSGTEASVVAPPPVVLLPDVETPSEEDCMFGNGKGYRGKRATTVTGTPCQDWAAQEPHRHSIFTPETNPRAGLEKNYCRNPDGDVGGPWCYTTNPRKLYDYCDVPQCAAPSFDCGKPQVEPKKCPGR
Description: as §1, with “minutes. […] It was measured by using 0.1 ml of plasmin (generated by activation of plasminogen with streptokinase) and TAMe as substrate following the method described in (1).” for “minutes.”

[3] = target: Bovine Thrombin (Bos taurus, UniProt P00735); test: Inhibitory effect on ester-hydrolyzing activity of bovine thrombin (TAMe substrate); conditions: for inhibition at 1000 µM: at 10^-3 M, in vitro, TAMe, read-out: Thrombin percent inhibition; for inhibitory activity on thrombin: text of Examples
Description: The enzyme-inhibitory activities in vitro of the compounds of this invention were measured by the following procedure according to the method of M. Muramatsu et al. [M. Muramatsu, T. Onishi, S. Makino, Y. Hayashi and S. Fujii: J. Biochem., 58, 214 (1965)]
To 0.1 ml of trypsin (5 μg/ml) were added 0.5 ml of 0.1 M borate buffer solution (pH 8.6) containing 10 mM CaCl2, and 0.1 ml of a varying concentration of an inhibitor solution, and preincubation was carried out at 37° C. for 5 minutes. Then, 10 μmoles of the substrate, TAMe (tosylarginine methyl ester), was added, and incubation was preformed at 37° C. for 30 minutes.
After the incubation, 1.5 ml of 2 M alkaline hydroxylamine was added and thoroughly mixed, and allowed to stand at room temperature for 15 minutes. Then, 1.0 ml of each of 18% trichloroacetic acid, 4 N HCl and 10% FeCl3 was added and thoroughly mixed. If necessary, the mixture was centrifuged at 3,000 rpm for 10 minutes, and the absorbance of the supernatant was measured at 530 nm.
It was measured by using 0.4 ml of bovine thrombin […], 0.02 M sodium phosphate buffer solution (pH 7.4) and TAMe as substrate following the method described in (1).

[4] = target: T2, Human Cl Esterase (Homo sapiens, UniProt P09871); test: Inhibitory effect on ester-hydrolyzing activity of human Cl esterase (ATEe substrate); conditions: for inhibition at 1000 µM: read-out: Cl-esterase percent inhibition; for inhibitory activity on Cl-esterase: text of Examples; for IC50: pH 7.4, Table 4 bracketed value, read-out: Cl-esterase ID50
T2 sequence (P09871 438-688 limits assumed): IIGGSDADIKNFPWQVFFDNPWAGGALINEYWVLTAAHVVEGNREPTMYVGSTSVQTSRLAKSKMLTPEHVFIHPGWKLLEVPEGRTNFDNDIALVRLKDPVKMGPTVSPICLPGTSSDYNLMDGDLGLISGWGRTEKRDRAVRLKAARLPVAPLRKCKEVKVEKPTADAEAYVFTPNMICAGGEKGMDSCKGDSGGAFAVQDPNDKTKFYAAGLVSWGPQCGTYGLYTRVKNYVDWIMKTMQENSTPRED
T2 sequence (P09871 16-437 partner limits assumed): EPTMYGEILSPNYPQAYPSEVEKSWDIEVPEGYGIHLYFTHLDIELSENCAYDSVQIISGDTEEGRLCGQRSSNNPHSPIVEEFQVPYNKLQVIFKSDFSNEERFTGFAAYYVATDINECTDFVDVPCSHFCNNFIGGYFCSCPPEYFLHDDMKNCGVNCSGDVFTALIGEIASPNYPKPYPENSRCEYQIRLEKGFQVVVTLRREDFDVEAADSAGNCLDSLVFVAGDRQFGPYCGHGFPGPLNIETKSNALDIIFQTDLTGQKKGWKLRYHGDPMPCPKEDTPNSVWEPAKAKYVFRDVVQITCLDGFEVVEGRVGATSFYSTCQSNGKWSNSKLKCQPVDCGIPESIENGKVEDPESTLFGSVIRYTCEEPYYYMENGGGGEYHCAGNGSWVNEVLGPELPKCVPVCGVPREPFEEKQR
Description: It was measured by using 0.1 ml of Cl esterase, 0.1 ml of 0.02 M sodium phosphate buffer solution (pH 7.4 ) and 10 μmoles of ATEe (acetyltyrosine ethyl ester) as substrate following the method described in (1).

[5] = target: Human Plasma Kallikrein (Homo sapiens, UniProt P03952); test: Inhibitory effect on ester-hydrolyzing activity of human plasma kallikrein (TAMe substrate); conditions: for inhibition at 1000 µM: at 10^-3 M, read-out: Kallikrein percent inhibition; for inhibition at 1000 µM / IC50: in vitro, TAMe; for inhibitory activity on kallikrein: text of Examples; for IC50: Table 4 bracketed value, read-out: Kallikrein ID50
Chain of Human Plasma Kallikrein (P03952 391-638 limits assumed): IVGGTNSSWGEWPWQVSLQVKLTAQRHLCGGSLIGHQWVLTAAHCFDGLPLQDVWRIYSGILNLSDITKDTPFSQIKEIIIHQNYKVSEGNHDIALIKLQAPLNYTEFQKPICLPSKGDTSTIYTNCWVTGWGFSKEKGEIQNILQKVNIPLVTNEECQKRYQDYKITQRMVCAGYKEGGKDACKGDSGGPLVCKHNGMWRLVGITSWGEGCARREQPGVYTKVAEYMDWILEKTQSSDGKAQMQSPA
Chain of Human Plasma Kallikrein (P03952 20-390 partner limits assumed): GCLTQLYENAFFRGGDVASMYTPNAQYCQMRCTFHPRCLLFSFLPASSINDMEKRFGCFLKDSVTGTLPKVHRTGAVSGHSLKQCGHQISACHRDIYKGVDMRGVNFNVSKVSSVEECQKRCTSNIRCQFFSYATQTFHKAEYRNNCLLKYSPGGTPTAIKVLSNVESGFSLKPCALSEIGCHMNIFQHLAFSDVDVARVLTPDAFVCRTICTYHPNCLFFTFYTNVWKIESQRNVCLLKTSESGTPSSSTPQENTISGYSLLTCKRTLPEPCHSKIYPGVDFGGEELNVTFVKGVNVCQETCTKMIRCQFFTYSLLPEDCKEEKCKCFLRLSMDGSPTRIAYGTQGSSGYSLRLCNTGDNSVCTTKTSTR
Description: as §1

[6] = in vitro, TAMe, pH 8.6, 37° C., Table 4 bracketed value, read-out: Trypsin ID50

Compound	IC50 [1, 6]	inhibition at 1000 µM [2]	inhibition at 1000 µM [5]	inhibition at 1000 µM [3]	inhibition at 1000 µM ([4]; at 10^-3 M, in vitro, ATEe)	IC50 [3]	inhibition at 1000 µM [4]	also measured
COC(=O)c1ccc(OC(=O)C2CCCc3c(N)cccc32)cc1 (centres unmarked) [Compound 63]	18 µM	35%	–	–	–	1000 µM	16.5%	–
COC(=O)c1cccc(OC(=O)C2CCCc3c(N)cccc32)c1 (centres unmarked) [Compound 64]	61 µM	< 3.2%	28%	20.3%	< 3.2%	–	–	–
CCOC(=O)c1ccc(OC(=O)C2CCCc3c(N)cccc32)cc1.Cl (centres unmarked) [Compound 66, p-ethoxycarbonylphenyl 5-amino-1,2,3,4-tetrahydro-1-naphthoate hydrochloride]	–	4.4%	19.9%	16.5%	–	–	< 3.2%	IC50 ([1]; in vitro, text of Examples, read-out: ID50, tosylarginine methyl ester hydrolyzing activity of trypsin): 88 µM; inhibitory activity on plasmin [2]: no inhibitory activity; inhibitory activity on kallikrein [5]: no inhibitory activity; inhibitory activity on thrombin [3]: no inhibitory activity; inhibitory activity on Cl-esterase [4]: no inhibitory activity
CCCOC(=O)c1ccc(OC(=O)C2CCCc3c(N)cccc32)cc1 (centres unmarked) [Compound 68]	41 µM	< 3.2%	–	< 3.2%	< 3.2%	–	–	–
NC(=O)COC(=O)c1ccc(OC(=O)C2CCCc3c(N)cccc32)cc1 (centres unmarked) [Compound 71]	31 µM	–	23.4%	–	–	62 µM	30.6%	IC50 [2]: 54 µM
CN(C)C(=O)COC(=O)c1ccc(OC(=O)C2CCCc3c(N)cccc32)cc1 (centres unmarked) [Compound 72]	25 µM	< 3.2%	–	–	–	120 µM	< 3.2%	IC50 [5]: 1000 µM
Cl.Nc1ccc2c(c1)C(C(=O)Oc1ccc(Cl)cc1)CCC2 (centres unmarked) [Compound 83, p-chlorophenyl 7-amino-1,2,3,4-tetrahydro-1-naphthoate hydrochloride]	–	–	–	–	–	–	–	inhibitory activity on plasmin [2]: no inhibitory action; inhibitory activity on kallikrein [5]: no inhibitory action; inhibitory activity on thrombin [3]: no inhibitory action; inhibitory activity on Cl-esterase [4]: no inhibitory action
COC(=O)c1cccc(OC(=O)C2CCCc3ccc(N)cc32)c1 (centres unmarked) [Compound 92]	98 µM	< 3.2%	< 3.2%	–	–	1000 µM	27.3%	–
CCOC(=O)c1ccc(OC(=O)C2CCCc3c(NC(=N)N)cccc32)cc1 (centres unmarked) [Compound 121, ethoxycarbonylphenyl 5-guanidino-1,2,3,4-tetrahydro-1-naphthoate hydrochloride]	–	–	–	–	–	–	–	IC50 ([1]; Example 6, read-out: ID50, tosylarginine methyl ester hydrolyzing activity of trypsin (unit inferred)): 74 µM

Now from value to compound, other results behind:

IC50 [1, 6]	inhibition at 1000 µM [2]	inhibition at 1000 µM [5]	inhibition at 1000 µM [3]	inhibition at 1000 µM ([4]; at 10^-3 M, in vitro, ATEe)	Compound	IC50 [3]	inhibition at 1000 µM [4]	also measured
52 µM	26.2%	14.1%	22%	< 3.2%	CCOC(=O)COC(=O)c1ccc(OC(=O)C2CCCc3c(N)cccc32)cc1 (centres unmarked) [Compound 70]	–	–	–
36 µM	< 3.2%	–	24.4%	15.2%	Nc1cccc2c1CCCC2C(=O)Oc1ccc(OC(=O)C2CCCc3c(N)cccc32)cc1 (centres unmarked) [Compound 78]	–	–	IC50 [5]: 360 µM
46 µM	16.6%	25%	42.9%	3.2%	CCOC(=O)c1ccc(OC(=O)C2CCCc3ccc(N)cc32)cc1 (centres unmarked) [Compound 94]	–	–	–
68 µM	< 3.2%	–	25.1%	< 3.2%	CCCOC(=O)c1ccc(OC(=O)C2CCCc3ccc(N)cc32)cc1 (centres unmarked) [Compound 96]	–	–	–
60 µM	24.6%	< 3.2%	40.5%	< 3.2%	CCOC(=O)COC(=O)c1ccc(OC(=O)C2CCCc3ccc(N)cc32)cc1 (centres unmarked) [Compound 98]	–	–	–
–	–	–	46.7%	–	CCCOC(=O)c1ccc(OC(=O)C2CCCc3c(NC(=N)N)cccc32)cc1 (centres unmarked) [Compound 123]	–	–	inhibition at 1000 µM ([1]; at 10^-3 M, in vitro, TAMe, read-out: Trypsin percent inhibition): 45.7%; IC50 [2]: 900 µM; IC50 ([4]; in vitro, ATEe): 350 µM
100 µM	–	–	–	–	CCCOC(=O)c1ccc(OC(=O)C2CCCc3ccc(NC(=N)N)cc32)cc1 (centres unmarked) [Compound 151]	42 µM	–	IC50 [2]: 480 µM; IC50 ([4]; in vitro, ATEe): 330 µM

— patent US4214093A, “Amino- or guanidino-1,2,3,4-tetrahydro-1-naphthoic esters” (Torii & Co., Ltd., priority 1977, dated 1980)
